Numbered stars: 1 amine (or outer) side, 2 acyl side, 3 side chain; on linkers, the order of the positions; unused ones are H or OH. Bridge positions count the residues as written; N and C are the ends. Square brackets hold non-standard residues; d marks the D form. Peptide text beside a SMILES is read from it. * marks the point of attachment. C20 diacid = O=C(O)CCCCCCCCCCCCCCCCCCC(=O)*; γGlu = O=C(O)[C@H](CCC(=O)[*:2])N[*:1]; NMeI = CC[C@H](C)[C@H](NC)C(=O)O; Sar = CNCC(=O)O
Experiments:
[1] = Solubility assessment (turbidity absorbance at 325 nm); type: physicochemical; details: stock 2 mg/ml diluted 1:1, ambient temperature (typically 25°C), n=1; for Solubility, Acetate buffer pH 4: 100 mM acetate buffer pH 4.0; for Solubility, Acetate buffer pH 5: 100 mM acetate buffer pH 5.0; for Solubility, Histidine buffer pH 6: 100 mM histidine buffer pH 6.0; for Solubility, Histidine buffer pH 7: 100 mM histidine buffer pH 7.0; for Solubility, Phosphate buffer pH 6: 100 mM phosphate buffer pH 6.0; for Solubility, Phosphate buffer pH 7: 100 mM phosphate buffer pH 7.0; for Solubility, Phosphate buffer pH 7.5: 100 mM phosphate buffer pH7.5
How it was run: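 Peptide stock (2 mg/ml) in water acidified to pH 2.5 with HCl was diluted 1:1 into 100 mM acetate (pH 4.0, 5.0), histidine (pH 6.0, 7.0) or phosphate (pH 6.0, 7.0, 7.5) buffer. A280 and A325 were read at about 25°C, n=1. A325 ≤ 0.02 meant solubility ≥ 1 mg/ml.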

[2] = Assessment of physical stability: fibril formation detected with Thioflavin T (ThT), lag-time; type: physicochemical; details: 1 mg/ml peptide, 40 µM ThT, FND = Fibrillation not detected; for Fibrillation lag time (hours) pH 4.0 (Ac): 50 mM acetate buffer pH 4.0, 96 hours at 40°C; for Fibrillation lag time (hours) pH 7.0 (His): 50 mM histidine buffer pH 7.0, 96 hours at 40°C; for Fibrillation lag time (hours) pH 7.0 (Ph): 50 mM phosphate buffer pH 7.0, 96 hours at 40°C
How it was run: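 Test peptide at 1 mg/ml with 40 µM ThT in 50 mM phosphate (pH 7.0), 50 mM histidine (pH 7.0) or 50 mM acetate (pH 4.0), in triplicate, 40° C. for 96 h. Fluorescence read every 10 min after 300 s agitation. Lag-time (h) taken as intersection of linear fits to initial stable and growth phases.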

[3] = system: Sprague Dawley (SD) rats; assay: Acute food intake and body weight in normal Sprague Dawley rats; type: in vivo; details: vehicle-corrected, dose 30 nmol/kg sc, once; for Body weight loss (%) after 96 hours: mean ± SEM, n = 8
Method: Sprague Dawley (SD) rats were obtained from Taconic A/S, Denmark. The animals arrived at least 7 days before the study start to allow acclimatization to experimental conditions. From arrival and throughout the study, the rats were housed in groups of 2 (n = 2) in a light-, temperature- and humidity-controlled room (reversed 12/12 h light/dark cycle: lights turned off during day-time and on during night-time; temperature 20-22°C; relative humidity 50-80%). Animals had access ad libitum to food (Altromin™ 1324, Brogaarden A/S, Gentofte, Denmark) and water (domestic quality tap water with citric acid added to pH ∼ 3.6) during the entire study. Stratification of rats was based on body weight (BW) on a cage-by-cage basis; mean BWs per cage were used as the basis for pairing four cages together in a group (n = 8 per group). A vehicle group and positive control group were included in each set of tests. Rats were dosed subcutaneously (sc) once in the morning immediately before turning off the lights, using a body weight-corrected dose of peptide (30 nmol/kg). Dosing volume was 5 ml/kg. Food intake was recorded manually at t = 0 (pre-dose) and at t = 4, 7, 10, 24, 48, 72 and 96 hours after dosing. Body weight was measured daily.
Statistical analyses on body weight were performed using GraphPad™ Prism version 5. The measured parameters were compared using unpaired t tests. Differences were considered statistically significant at p < 0.05. Data are means ± SEM; n =8.

Structure (SMILES): CC[C@H](C)[C@@H](C(=O)N[C@@H](CC(C)C)C(=O)N[C@@H](CO)C(=O)N[C@@H](CO)C(=O)N[C@H](C(=O)N[C@@H](CC(N)=O)C(=O)N[C@H](C(=O)NCC(=O)N[C@@H](CO)C(=O)N[C@@H](CC(N)=O)C(=O)N[C@H](C(=O)N1CCC[C@H]1C(N)=O)[C@@H](C)O)C(C)C)[C@@H](C)O)N(C)C(=O)[C@H](C)NC(=O)CN(C)C(=O)[C@H](Cc1ccccc1)NC(=O)[C@H](CC(N)=O)NC(=O)[C@H](CC(N)=O)NC(=O)[C@H](CO)NC(=O)[C@H](CO)NC(=O)[C@H](Cc1c[nH]cn1)NC(=O)[C@H](Cc1c[nH]cn1)NC(=O)[C@H](CC(C)C)NC(=O)[C@H](Cc1ccccc1)NC(=O)[C@H](CCC(=O)O)NC(=O)[C@H](C)NC(=O)[C@H](CC(C)C)NC(=O)[C@H](CCCNC(=N)N)NC(=O)[C@H](CCC(N)=O)NC(=O)[C@@H](NC(=O)[C@H](C)NC(=O)[C@@H]1CSSC[C@H](NC(=O)[C@H](CCCNC(=N)N)NC(=O)CC[C@H](NC(=O)CCCCCCCCCCCCCCCCCCC(=O)O)C(=O)O)C(=O)N[C@@H](CC(N)=O)C(=O)N[C@@H]([C@@H](C)O)C(=O)N[C@@H](C)C(=O)N[C@@H]([C@@H](C)O)C(=O)N1)[C@@H](C)O [Compound 1, [19CD]-isoGlu-RC()NTATC()ATQRLAEFLHHSSNNF-Gly(Me)-A-Ile(Me)-LSSTNVGSNTP-NH2] ({C20 diacid-γGlu}-RCNTATCATQRLAEFLHHSSNNF[Sar]A[NMeI]LSSTNVGSNTP-NH2; disulfide 2-7)
- Solubility, Acetate buffer pH 4 [1]: SS (SS indicates solubility ≥ 1mg/ml)
- Solubility, Acetate buffer pH 5 [1]: SS (SS indicates solubility ≥ 1mg/ml)
- Solubility, Histidine buffer pH 6 [1]: SS (SS indicates solubility ≥ 1mg/ml)
- Solubility, Histidine buffer pH 7 [1]: SS (SS indicates solubility ≥ 1mg/ml)
- Solubility, Phosphate buffer pH 6 [1]: SS (SS indicates solubility ≥ 1mg/ml)
- Solubility, Phosphate buffer pH 7 [1]: SS (SS indicates solubility ≥ 1mg/ml)
- Solubility, Phosphate buffer pH 7.5 [1]: SS (SS indicates solubility ≥ 1mg/ml)
- Fibrillation lag time (hours) pH 4.0 (Ac) [2]: FND^§§
- Fibrillation lag time (hours) pH 7.0 (His) [2]: FND
- Fibrillation lag time (hours) pH 7.0 (Ph) [2]: FND
- Food intake inhibition (%) after 48 hours [3]: 98%
- Body weight loss (%) after 96 hours [3]: 9 ± 1.8%

Structure (SMILES): CC[C@H](C)[C@@H](C(=O)N[C@@H](CC(C)C)C(=O)N[C@@H](CO)C(=O)N[C@@H](CO)C(=O)N[C@H](C(=O)N[C@@H](CCC(=O)O)C(=O)N[C@H](C(=O)NCC(=O)N[C@@H](CO)C(=O)N[C@@H](CCC(=O)O)C(=O)N[C@H](C(=O)N1CCC[C@H]1C(N)=O)[C@@H](C)O)C(C)C)[C@@H](C)O)N(C)C(=O)[C@H](C)NC(=O)CN(C)C(=O)[C@H](Cc1ccccc1)NC(=O)[C@H](CO)NC(=O)[C@H](CO)NC(=O)[C@H](CO)NC(=O)[C@H](CO)NC(=O)[C@H](CCCNC(=N)N)NC(=O)[C@H](Cc1c[nH]cn1)NC(=O)[C@H](CC(C)C)NC(=O)[C@H](Cc1ccccc1)NC(=O)[C@H](CCC(=O)O)NC(=O)[C@H](C)NC(=O)[C@H](CC(C)C)NC(=O)[C@H](CCCNC(=N)N)NC(=O)[C@H](C)NC(=O)[C@@H](NC(=O)[C@H](C)NC(=O)[C@@H]1CSSC[C@H](NC(=O)[C@H](CCCNC(=N)N)NC(=O)CC[C@H](NC(=O)CCCCCCCCCCCCCCCCCCC(=O)O)C(=O)O)C(=O)N[C@@H](CC(N)=O)C(=O)N[C@@H]([C@@H](C)O)C(=O)N[C@@H](C)C(=O)N[C@@H]([C@@H](C)O)C(=O)N1)[C@@H](C)O [Compound 118, [19CD]-isoGlu-RC()NTATC()ATARLAEFLHRSSSSF-Gly(Me)-A-Ile(Me)-LSSTEVGSETP-NH2] ({C20 diacid-γGlu}-RCNTATCATARLAEFLHRSSSSF[Sar]A[NMeI]LSSTEVGSETP-NH2; disulfide 2-7)
- Fibrillation lag time (hours) pH 4.0 (Ac) [2]: FND
- Fibrillation lag time (hours) pH 7.0 (His) [2]: FND
- Fibrillation lag time (hours) pH 7.0 (Ph) [2]: FND
- Food intake inhibition (%) after 48 hours [3]: 93%
- Body weight loss (%) after 96 hours [3]: 13 ± 1.8%

Structure (SMILES): CC[C@H](C)[C@@H](C(=O)N[C@@H](CC(C)C)C(=O)N1CCC[C@H]1C(=O)N1CCC[C@H]1C(=O)N[C@H](C(=O)N[C@@H](CC(N)=O)C(=O)N[C@H](C(=O)NCC(=O)N[C@@H](CO)C(=O)N[C@@H](CC(N)=O)C(=O)N[C@H](C(=O)N1CCC[C@H]1C(N)=O)[C@@H](C)O)C(C)C)[C@@H](C)O)N(C)C(=O)CN(C)C(=O)[C@H](Cc1ccccc1)NC(=O)[C@H](CC(N)=O)NC(=O)[C@H](CC(N)=O)NC(=O)[C@H](CO)NC(=O)[C@H](CO)NC(=O)[C@H](Cc1c[nH]cn1)NC(=O)[C@H](Cc1c[nH]cn1)NC(=O)[C@H](CC(C)C)NC(=O)[C@H](Cc1ccccc1)NC(=O)[C@H](CCC(=O)O)NC(=O)[C@H](C)NC(=O)[C@H](CC(C)C)NC(=O)[C@H](CCCNC(=N)N)NC(=O)[C@H](CCC(N)=O)NC(=O)[C@@H](NC(=O)[C@H](C)NC(=O)[C@@H]1CSSC[C@H](NC(=O)[C@H](CCCNC(=N)N)NC(=O)CC[C@H](NC(=O)CCCCCCCCCCCCCCCCCCC(=O)O)C(=O)O)C(=O)N[C@@H](CC(N)=O)C(=O)N[C@@H]([C@@H](C)O)C(=O)N[C@@H](C)C(=O)N[C@@H]([C@@H](C)O)C(=O)N1)[C@@H](C)O [Compound 176, [19CD]-isoGlu-RC()NTATC()ATQRLAEFLHHSSNNF-Gly(Me)-Ile(Me)-LPPTNVGSNTP-NH2] ({C20 diacid-γGlu}-RCNTATCATQRLAEFLHHSSNNF[Sar][NMeI]LPPTNVGSNTP-NH2; disulfide 2-7)
- Solubility, Acetate buffer pH 4 [1]: SS (SS indicates solubility ≥ 1mg/ml)
- Solubility, Acetate buffer pH 5 [1]: SS (SS indicates solubility ≥ 1mg/ml)
- Solubility, Histidine buffer pH 6 [1]: SS (SS indicates solubility ≥ 1mg/ml)
- Solubility, Histidine buffer pH 7 [1]: SS (SS indicates solubility ≥ 1mg/ml)
- Solubility, Phosphate buffer pH 6 [1]: SS (SS indicates solubility ≥ 1mg/ml)
- Solubility, Phosphate buffer pH 7 [1]: SS (SS indicates solubility ≥ 1mg/ml)
- Solubility, Phosphate buffer pH 7.5 [1]: SS (SS indicates solubility ≥ 1mg/ml)

Structure (SMILES): CC[C@H](C)[C@H](NC(=O)[C@@H]1CCCN1C(=O)CNC(=O)[C@H](Cc1ccccc1)NC(=O)[C@H](CC(N)=O)NC(=O)[C@H](CC(N)=O)NC(=O)[C@H](CO)NC(=O)[C@H](CO)NC(=O)[C@H](Cc1c[nH]cn1)NC(=O)[C@H](Cc1c[nH]cn1)NC(=O)[C@H](CC(C)C)NC(=O)[C@H](Cc1ccccc1)NC(=O)[C@H](CCC(=O)O)NC(=O)[C@H](C)NC(=O)[C@H](CC(C)C)NC(=O)[C@H](CCCNC(=N)N)NC(=O)[C@H](CCC(N)=O)NC(=O)[C@@H](NC(=O)[C@H](C)NC(=O)[C@@H]1CSSC[C@H](NC(=O)[C@H](CCCNC(=N)N)NC(=O)CC[C@H](NC(=O)CCCCCCCCCCCCCCCCCCC(=O)O)C(=O)O)C(=O)N[C@@H](CC(N)=O)C(=O)N[C@@H]([C@@H](C)O)C(=O)N[C@@H](C)C(=O)N[C@@H]([C@@H](C)O)C(=O)N1)[C@@H](C)O)C(=O)N[C@@H](CC(C)C)C(=O)N1CCC[C@H]1C(=O)N1CCC[C@H]1C(=O)N[C@H](C(=O)N[C@@H](CC(N)=O)C(=O)N[C@H](C(=O)NCC(=O)N[C@@H](CO)C(=O)N[C@@H](CC(N)=O)C(=O)N[C@H](C(=O)N1CCC[C@H]1C(N)=O)[C@@H](C)O)C(C)C)[C@@H](C)O [NN96, N-α-[(S)-4-carboxy-4-(19-carboxynonadecanoylamino)butyryl]-[Arg1,Glu14,His17,Pro37]-pramlintide, reference compound] ({C20 diacid-γGlu}-RCNTATCATQRLAEFLHHSSNNFGPILPPTNVGSNTP-NH2; disulfide 2-7)
- Solubility, Acetate buffer pH 4 [1]: SS (SS indicates solubility ≥ 1mg/ml)
- Solubility, Acetate buffer pH 5 [1]: SS (SS indicates solubility ≥ 1mg/ml)
- Solubility, Histidine buffer pH 6 [1]: SS (SS indicates solubility ≥ 1mg/ml)
- Solubility, Histidine buffer pH 7 [1]: SS (SS indicates solubility ≥ 1mg/ml)
- Solubility, Phosphate buffer pH 6 [1]: SS (SS indicates solubility ≥ 1mg/ml)
- Solubility, Phosphate buffer pH 7 [1]: SS (SS indicates solubility ≥ 1mg/ml)
- Solubility, Phosphate buffer pH 7.5 [1]: SS (SS indicates solubility ≥ 1mg/ml)

Source: patent publication EP3046573B1, “AMYLIN ANALOGUES” (Zealand Pharma A/S, priority 2013, dated 2015)
